This note sets out measurements from patent US9670486B2, “RNAi-based method of screening and characterizing drug combinations” (Massachusetts Institute of Technology, priority 2011, dated 2017).

The test system of data set [1] is Eμ-Myc;p19Arf−/− lymphoma cells. The data set is described as follows: 8-shRNA signature (GFP competition) with probabilistic nearest neighbors and PCA analysis. It is filed as cell-based, mouse. To be noted: shDNAPKcs, LD80-90.
Data set [2] has the same test system. Particulars: for single drug cell death: single drug concentration used in the 17AAG-CBL combination.

On to `COc1cccc2c1C(=O)c1c(O)c3c(c(O)c1C2=O)C[C@@](O)(C(=O)CO)C[C@@H]3O[C@H]1C[C@H](N)[C@H](O)[C@H](C)O1` [Dox, doxorubicin], for which the “effect of diminution of DNAPKcs levels on drug response” value in data set [1] is “sensitivity”. For the molecule `O=C(O)CCCc1ccc(N(CCCl)CCCl)cc1` [CBL, Chlorambucil], the “effect of diminution of DNAPKcs levels on drug response” value in data set [1] is recorded as “resistance”. The “single drug cell death” value in data set [2] is approximately 20%. Turning to `Nc1nc2c(c(=O)[nH]1)N(C=O)C(CNc1ccc(C(=O)N[C@@H](CCC(=O)O)C(=O)O)cc1)CN2` (stereo partly drawn) [leucovorin], the “effect on 5-FU action” value in data set [2] is given as “potentiated 5-FU action”. Further, in data set [2] (leucovorin alone at 1 μM, lymphoma cells), the cell death entry was “no cell death”. For the molecule `C=CCNC1=C2C[C@@H](C)C[C@H](OC)[C@H](O)[C@@H](C)/C=C(\C)[C@H](OC(N)=O)[C@@H](OC)/C=C\C=C(/C)C(=O)NC(=CC1=O)C2=O` [17AAG], in data set [2], the “single drug cell death” value is approximately 20%.
